Source: US20100215777A1, “Malononitrile Compounds” (BASF SE, priority 2006, published 2010)

melting point: 88 to 90 °C
Structure (SMILES): N#CC(C#N)(CCCSC(F)(F)F)CC(F)(F)C(F)(F)C(F)(F)C(F)(F)C(F)(F)F
